Data set [1] relates to VRE (ATCC 700221) planktonic cells and biofilms. Description: Calgary Biofilm Device (CBD) MBC/MBEC determination. Type of data set: cell-based, Enterococcus faecium. The note with it: Enterococcus. The protocol: (§1) Biofilm eradication experiments were performed using the Calgary Biofilm Device to determine MBC/MBEC values for various compounds of interest (Innovotech, product code: 19111). The Calgary device (96-well plate with lid containing 96 total pegs to establish biofilms; 1 peg/well) was inoculated with 125 μL of a mid-log phase culture diluted 1,000-fold in tryptic soy broth with 0.5% glucose (TSBG) to establish bacterial biofilms after incubation at 37° C. for 24 hours. The lid of the Calgary device was then removed, washed and transferred to another 96-well plate containing 2-fold serial dilutions of the test compounds (the “challenge plate”). The total volume of media with compound in each well in the challenge plate was 150 μL. The Calgary device was then incubated at 37° C. for 24 hours. The lid was then removed from the challenge plate and MBC/MBEC values were determined using different final assays. […] The MBC values were determined as the concentration giving a lack of visible bacterial growth (e.g., turbidity). For determination of MBEC values, the Calgary device lid (with attached pegs/treated biofilms) was transferred to a new 96-well plate containing 150 μL of fresh TSBG media in each well and incubated for 24 hours at 37° C. to allow viable biofilms to grow and disperse resulting in turbidity after the incubation period. […] In select experiments, treated pegs from the Calgary device were removed from lead biofilm eradicators after final incubation, sonicated for 30 minutes in PBS and plated out to determine biofilm cell killing (e.g., colony forming unit per milliliter, CFU/mL).

In data set [2] the test system is MRSE (ATCC 35984) planktonic cells and biofilms. The data set is described as above. As to conditions: for MBC: Staphylococcus epidermidis, planktonic killing, CBD, first value of cell. The data set is classed as cell-based, Staphylococcus epidermidis. The procedure:
as §1

Data set [3] relates to MRSA-2 planktonic cells and biofilms. Described as above. Type of data set: cell-based, Staphylococcus aureus. The note with it: for MBC: Staphylococcus aureus, MRSA. The procedure: as §1
The subject of data set [4] is human red blood cells. Briefly: Hemolysis assay. Type of data set: cell-based. The protocol:
Freshly drawn human red blood cells (hRBC with ethylenediaminetetraacetic acid (EDTA) as an anticoagulant) were washed with Tris-buffered saline (0.01M Tris-base, 0.155M sodium chloride (NaCl), pH 7.2) and centrifuged for 5 minutes at 3500 rpm. The washing was repeated three times with the buffer. In 96-well plate, the test compounds were added to the buffer. […] The plate was then incubated for 1 hour at 37° C. After incubation, the plate is centrifuged for 5 minutes at 3500 rpm. Then 80 μL of the supernatant were transferred to another 96-well plate and the Optical Density (OD) was read at 405 nm. […] The percent of hemolysis was calculated as (OD405 of the compound-OD405 DMSO)/(OD405 Triton X-OD405 buffer).

The subject of data set [5] is methicillin-resistant Staphylococcus epidermidis (MRSE; ATCC 35984). Description: Minimum inhibitory concentration (MIC) susceptibility assay, broth microdilution. Type of data set: cell-based. The note with it: for MIC: read-out: MRSE MIC. The protocol: (§2) The minimum inhibitory concentration (MIC) for each compound was determined by the broth microdilution method as recommended by the Clinical and Laboratory Standards Institute (CLSI). In a 96-well plate, eleven two-fold serial dilutions of each compound were made in a final volume of 100 μL Luria Broth. Each well was inoculated with ˜10^5 bacterial cells at the initial time of incubation, prepared from a fresh log phase culture (OD600 of 0.5 to 1.0 depending on bacterial strain). […] The concentration range tested for each compound during this study was 0.10 to 100 μM. DMSO served as the vehicle and negative control in each microdilution MIC assay. DMSO was serially diluted with a top concentration of 1% v/v. Bacterial strains used: methicillin-resistant Staphylococcus aureus-2 (MRSA-2; clinical isolate from Shands Hospital in Gainesville, Fla.), methicillin-resistant Staphylococcus epidermidis (MRSE; ATCC 35984), vancomycin-resistant Enterococcus faecium (VRE, ATCC 700221).
On the technique in general: In broth dilution the organism is exposed to a series of concentrations in liquid medium.

Data set [6] relates to methicillin-resistant Staphylococcus aureus-2 (MRSA-2; clinical isolate). Described as above. Type of data set: cell-based. The procedure:
as §2

Data set [7] relates to vancomycin-resistant Enterococcus faecium (VRE, ATCC 700221). The data set is described as above. The data set is classed as cell-based. As to conditions: read-out: VRE MIC. The protocol: as §2
For data set [8], the system named is MRSA-2. Briefly: Mechanistic investigations with metal(II)-cations (MIC assay with 200 μM metal salt). The note with it: for MIC: Staphylococcus aureus. Type of data set: cell-based, Staphylococcus aureus. The protocol: as §2
Where [9] appears, read: Table 3, planktonic killing, CBD, first value of MBC/MBEC cell, read-out: MRSA-2 MBC.
Where [10] appears, read: Table 2, read-out: MRSE ATCC 35984 MBC.
[11] abbreviates: Table 2, planktonic killing, CBD, first value of MBC/MBEC cell, read-out: MRSA-2 Clinical Isolate MBC.
The mark [12] stands for this setting: Staphylococcus epidermidis, Table 2, ATCC 35984.
Where [13] appears, read: Staphylococcus, MRSA, Table 2, 2 to 6 independent experiments, read-out: MRSA-2 MIC.
The mark [14] stands for this setting: Table 2, planktonic killing, CBD, first value of cell, read-out: VRE ATCC 700221 MBC.
The mark [15] stands for this setting: Staphylococcus epidermidis, 18 h, Table 2, ATCC 35984.
Setting [16] is: MRSA-2, change in antibacterial activity according to MIC values.

This is an account of results in patent US11008290B2, “Halogenated quinoline derivatives as antimicrobial agents” (University of Florida Research Foundation, Incorporated, priority 2015, dated 2021).

Each structure is given as a SMILES string. Converted amounts (≈) assume the structure as drawn. Like-named read-outs stand apart in the source and are kept apart here.

`CCc1ccc2c(Br)cc(Br)c(O)c2n1` [A-HQ-1]: the MBC was 1.5 µM (≈ 0.497 µg/mL) in data set [1] (Table 3, planktonic killing, CBD, first value of cell, footnote c = lowest concentration tested, read-out: VRE MBC); 31.3 µM (≈ 10.4 µg/mL) in data set [2] (Table 3, read-out: MRSE MBC); 93.8 µM (≈ 31 µg/mL) in data set [3] (setting [9]). Besides, the “% Haemolysis at 200 μM” value in data set [4] (human, 1 h, pH 7.2) is on record as ≤1%. Also, the MIC in data set [5] (Staphylococcus epidermidis, Table 3) came out at 0.39 µM (≈ 0.129 µg/mL); in data set [6] (Staphylococcus, MRSA, Table 3, at least three independent experiments, read-out: MRSA-2 MIC), 0.78 µM (≈ 0.258 µg/mL); in data set [7] (Table 3) it was 0.78 µM (≈ 0.258 µg/mL).
Turning to `N#CC(C#N)=NNc1cccc(Cl)c1` [CCCP, carbonyl cyanide m-chlorophenyl hydrazone, reference compound], the MBC in data set [2] (setting [10]) was 31.3 µM (≈ 6.4 µg/mL); in data set [2] (Table 3, read-out: MRSE MBC), 31.3 µM (≈ 6.4 µg/mL); in data set [3] (setting [11]), 31.3 µM (≈ 6.4 µg/mL); in data set [3] (setting [9]), 31.3 µM (≈ 6.4 µg/mL). Moreover, the “% Haemolysis at 200 μM” value was found to be 3.5% in data set [4] (Table 2, human red blood cells, 1 hour at 37° C.) and 3.5% in data set [4] (Table 3, human red blood cells). The MIC in data set [5] (setting [12]) came to 6.25 µM (≈ 1.28 µg/mL); in data set [5] (Table 3), 6.25 µM (≈ 1.28 µg/mL); in data set [6] (setting [13]) it was 3.13 µM (≈ 0.64 µg/mL); in data set [6] (Table 3, at least three independent experiments, read-out: MRSA-2 MIC) it was 3.13 µM (≈ 0.64 µg/mL).
For the compound `O=C(O)CN(CCN(CC(=O)O)CC(=O)O)CC(=O)O` [EDTA, ethylenediaminetetraacetic acid, reference compound], the MBC in data set [2] (Table 3, read-out: MRSE MBC) worked out at 1000 µM (≈ 292 µg/mL); in data set [3] (setting [9]), 2000 µM (≈ 584 µg/mL). Besides, in data set [4] (Table 3, human red blood cells), the “% Haemolysis at 200 μM” value is recorded as 3.0%.
As to `CCCCNCc1ccc2c(Br)cc(Br)c(O)c2n1` [HQ-2], the MBC worked out at 15.6 µM (≈ 6.05 µg/mL) in data set [1] (read-out: VRE ATCC 700221 MBC) and 46.9 µM (≈ 18.2 µg/mL) in data set [3] (read-out: MRSA-2 Clinical Isolate MBC). The MIC in data set [8] (MRSA, read-out: MIC w/Cu^2+) was 3.13 µM; in data set [8] (MRSA, read-out: MIC w/Fe^2+), 3.13 µM; in data set [8] (MRSA, read-out: MIC w/Zn^2+), 1.17 µM; in data set [5] (Staphylococcus epidermidis), 3.13 µM (≈ 1.21 µg/mL); in data set [6] (Staphylococcus, MRSA), 3.13 µM (≈ 1.21 µg/mL); in data set [6] (Staphylococcus, MRSA, read-out: MRSA-2 MIC), 6.25 µM (≈ 2.43 µg/mL). Also, in data set [7], the MIC was found to be 3.13 µM (≈ 1.21 µg/mL).
Regarding `Oc1c(Br)cc(Br)c2ccc(CNc3cccc(Cl)c3)nc12` [HQ-4], the MBC in data set [1] (setting [14]) was determined as 1.5 µM (≈ 0.664 µg/mL); in data set [2] (setting [10]), 9.38 µM (≈ 4.15 µg/mL); in data set [3] (setting [11]), 62.5 µM (≈ 27.7 µg/mL). For the same compound, the “MBEC:MBC ratio” value in data set [2] (MRSE 35984, CBD) is reported as ~1. The “MRSA-2 MBEC” value in data set [3] (Table 3, biofilm eradication, CBD, second value of MBC/MBEC cell) was “equipotent biofilm eradication activities”. The MIC in data set [5] (setting [15]) is 0.15 to 0.3 µM (≈ 0.0664 to 0.133 µg/mL); in data set [5] (setting [12]), 0.3 µM (≈ 0.133 µg/mL); in data set [6] (setting [13]) it was 1.17 µM (≈ 0.518 µg/mL); in data set [7] (18 h, Table 2, ATCC 700221) it was 0.39 to 0.78 µM (≈ 0.173 to 0.345 µg/mL); in data set [7] (Table 2, ATCC 700221), 0.78 µM (≈ 0.345 µg/mL).
Consider `Oc1c(Br)cc(Br)c2ccc(CNc3cc(Cl)cc(Cl)c3)nc12` [HQ-5], for which the results for the MBC in data set [1] (setting [14]), in data set [2] (setting [10]) and in data set [3] (setting [11]) were 2 µM (≈ 0.954 µg/mL), 1.5 µM (≈ 0.715 µg/mL) and 62.5 µM (≈ 29.8 µg/mL), respectively. The MIC in data set [5] (setting [15]) was 0.15 to 0.3 µM (≈ 0.0715 to 0.143 µg/mL); in data set [5] (setting [12]), 0.3 µM (≈ 0.143 µg/mL); in data set [6] (setting [13]), 1.56 µM (≈ 0.744 µg/mL); in data set [7] (18 h, Table 2, ATCC 700221), 0.39 to 0.78 µM (≈ 0.186 to 0.372 µg/mL); in data set [7] (Table 2, ATCC 700221), 0.39 µM (≈ 0.186 µg/mL).
Turning to `Oc1c(Br)cc(Br)c2ccc(CNc3ccc(Br)cc3)nc12` [HQ-6], the MBC in data set [1] (setting [14]) amounted to 3.9 µM (≈ 1.9 µg/mL); in data set [2] (setting [10]), 5.9 µM (≈ 2.87 µg/mL); in data set [3] (setting [11]), 125 µM (≈ 60.9 µg/mL). Moreover, the “MBEC:MBC ratio” value in data set [3] (MRSA-2, CBD) is on record as “equipotent killing efficiencies”. In addition, in data set [8] (setting [16]), the “Fold Δ (MIC w/Mg^2+)” value is recorded as “insignificant changes in antibacterial activities”. Besides, the “Fold Δ (MIC w/Zn^2+)” value in data set [8] (setting [16]) is listed as −6 fold. Moreover, the MIC in data set [8] (MRSA-2, 200 μM ammonium iron (II) sulfate hexahydrate, read-out: MIC w/Fe^2+) is 9.38 µM; in data set [8] (MRSA-2, 200 μM copper (II) sulfate, read-out: MIC w/Cu^2+), 1.13 µM; in data set [8] (MRSA-2, 200 μM magnesium (II) sulfate, read-out: MIC w/Mg^2+) it was 3.13 µM; in data set [8] (MRSA-2, 200 μM zinc (II) chloride, read-out: MIC w/Zn^2+), 0.78 µM; in data set [5] (setting [15]), 0.15 to 0.3 µM (≈ 0.073 to 0.146 µg/mL); in data set [5] (setting [12]), 0.15 µM (≈ 0.073 µg/mL). Further, the MIC in data set [6] (setting [13]) is 3.13 µM (≈ 1.52 µg/mL); in data set [6] (Staphylococcus, MRSA, read-out: MIC), 4.69 µM (≈ 2.28 µg/mL); in data set [7] (18 h, Table 2, ATCC 700221) it was 0.39 to 0.78 µM (≈ 0.19 to 0.38 µg/mL); in data set [7] (Table 2, ATCC 700221), 0.78 µM (≈ 0.38 µg/mL). Further, the “fold more potent antibacterial activities than vancomycin” value in data set [5] (MRSE, MIC, same assays) stood at 5 fold.
